Experimental data from patent US6677358B1, “NIDDM regimen” (Novo Nordisk A/S, priority 1997, dated 2004).
Where “and” joins values, the source holds several entries; their conditions need not be identical. Equal entries are not always repeated. Where two headings read alike, the source gives them in different places.

Columns and labels:
[1] = tested on: NIDDM patients inadequately controlled on metformin alone; details: for Change in FPG / Change in HbA1c (%) / Change in C peptide / Change in fasting insulin (mU/l): mean ± SEM; for Change in FPG / Change in HbA1c (%): baseline to end of 3-month maintenance period; for Change in C peptide / Change in fasting insulin (mU/l): baseline to end of maintenance treatment period
NIDDM patients = assay: Repaglinide 3 times daily before meals (REP3) vs twice daily (REP2), 4-week double-blind study; details: for Fasting blood glucose (mean ±SEM) after 4 weeks: doubled after 2 weeks
Description: The potential impact of tailoring insulin release to meal in-take was investigated in a study comparing 3 times daily dosing with repaglinide just before meals to the same dosage administered twice daily. Eighteen OHA-naive NIDDM patients entered a 4-week, single centre, double-blind study, and were randomised to either 0.25 mg repaglinide before breakfast, lunch and dinner (REP3), or 0.5 mg before breakfast, placebo at lunch, and 0.25 mg before dinner (REP2). After two weeks the doses were doubled.
After 2 weeks, the doses were doubled to 0.5 mg before each meal (REP3) and 1 mg+0.5 mg (REP2).

[2] = tested on: patients with type 2 diabetes; assay: Flexible meal-related dosing study of repaglinide (mixed vs fixed regimen), open-label parallel group; format: in vivo, human; details: for Mean fructosamine: 1 mg preprandially, end of 21 days
Description: In a single-centre, randomised, open-label, parallel group comparison study it was investigated whether repaglinide given preprandially will maintain glycaemic control in patients who skip a meal (lunch) or have an extra meal (bedtime snack) [mixed regimen] as compared with those who have three regular meals [fixed regimen].
A total of 25 diet-treated patients with type 2 diabetes were enrolled (18 men and 7 women) and given a fixed 1 mg dose of repaglinide preprandially (therapeutic dose range: 0.5-4 mg). After one week of stabilisation patients were randomised to the mixed or fixed regimen for a period of 21 days if blood glucose was >140 mg/dl.

[3] = Half-life (duration of action) of repaglinide; details: in vivo

CCOc1cc(CC(=O)N[C@@H](CC(C)C)c2ccccc2N2CCCCC2)ccc1C(=O)O [Repaglinide, (S)-(+)-2-ethoxy-4-[2-[[3-methyl-1-[2-(1-piperidinyl)phenyl]butyl]amino]-2-oxo-ethyl]benzoic acid]
Frequency of drug-related adverse events ([1]; human, in vivo): 25.0% | Gastrointestinal side effects ([1]; human, in vivo): 3.6% | Patients reporting hypoglycemic episodes (%) ([1]; human, in vivo): 17.9% | Patients reporting hypoglycemic episodes (number) ([1]; human, in vivo): 3 patients | Change in mean body weight during the study ([1]; in vivo): +2.98±0.49 kg | Change in FPG [1]: 0.49 mmol/L | Change in HbA1c (%) [1]: −0.38% | Change in FPG ([1]; listed as REP): 0.49 mmol/L | Change in HbA1c (%) ([1]; listed as REP): −0.38% | Change in C peptide [1]: 0.18 nmol/L | Change in fasting insulin (mU/l) [1]: 4.04 ± 1.56 mU/l | Blood glucose (AUC0-24 h) after 4 weeks (NIDDM patients; REP2 (twice daily)): 8.91 mmol/L | Increase in normed AUC0-24 h for plasma insulin (NIDDM patients; REP2, after 4 weeks): 20% | Fasting blood glucose (mean ±SEM) after 4 weeks (NIDDM patients; REP2: 0.5 mg before breakfast + 0.25 mg before dinner, baseline 11.3±0.73, 11.2): 9.6 mmol/L and 9.6 ± 0.7 mmol/L | HbA1c (±SEM) after 4 weeks (NIDDM patients; REP2, baseline 7.12±0.24, decrease non-significant): 6.8% and 6.84±0.34% | Blood glucose (AUC0-24 h) after 4 weeks (NIDDM patients; REP3 (three times daily before meals), P<0.05 vs REP2): 7.00 mmol/L | Increase in normed AUC0-24 h for plasma insulin (NIDDM patients; REP3, after 4 weeks): 35-40% | Fasting blood glucose (mean ±SEM) after 4 weeks (NIDDM patients; REP3: 0.25 mg, before each of three main meals, baseline 11.1±1.24, 11.2): 8.4 mmol/L and 8.4 ± 1.01 mmol/L | HbA1c (±SEM) after 4 weeks (NIDDM patients; REP3, baseline 7.51±0.78, P=0.004): 6.5% and 6.51±0.64% | Postprandial blood glucose, lower with REP3 than with REP2 (NIDDM patients; after 4 weeks, P<0.05): about 2.5 mmol/l | Normed AUC0-24 h for plasma C-peptide (NIDDM patients; both groups (REP2, REP3), after 4 weeks): increased in both groups | Plasma insulin before the next meal (NIDDM patients; both treatment groups): decreased to pre-treatment levels | Plasma insulin during the night in comparison with pre-treatment levels (NIDDM patients; both treatment groups): no increase | Non-serious adverse events (NIDDM patients; either treatment group): mild hypoglycemic episodes and one case of influenza | Serious adverse events (NIDDM patients; either treatment group): No serious adverse events | Blood glucose AUC over 24 hours, difference between fixed and mixed groups ([2]; 37-point blood glucose profile): not statistically significant | Hypoglycaemic episodes or serious adverse events ([2]; both regimens): no hypoglycaemic episodes or serious adverse events were reported | Mean fructosamine ([2]; fixed regimen (three regular meals), decreased from 3.10, p<0.05): 2.68 mmol/L | Tolerability of dose regimens ([2]; in vivo): well tolerated | Blood glucose levels when lunch was omitted ([2]; mixed regimen): remained stable until next meal | Mean fructosamine ([2]; mixed regimen (skipped lunch or extra bedtime snack), decreased from 3.37, p<0.05): 2.85 mmol/L | Mean fasting blood glucose (FBG) ([2]; value decreased to, both groups (fixed and mixed regimen)): approximately 120 mg/dl | T½ (short duration of action) [3]: one

CN(C)C(=N)N=C(N)N [Metformin, metformin]
Change in mean body weight during the study ([1]; in vivo): -0.86 ± 0.51 kg | Frequency of drug-related adverse events ([1]; in vivo): 14.8% | Gastrointestinal side effects ([1]; in vivo): 7.4% | Patients reporting hypoglycemic episodes (number) ([1]; in vivo): none | Change in FPG [1]: -0.25 mmol/L | Change in HbA1c (%) [1]: −0.33% | Change in FPG ([1]; listed as MET): -0.25 mmol/L | Change in HbA1c (%) ([1]; listed as MET): −0.33% | Change in C peptide [1]: 0.02 nmol/L | Change in fasting insulin (mU/l) [1]: 1.05 ± 1.60 mU/l
